According to patent US20140243374A1, “Novel Sulfonamides” (The Brigham and Women's Hospital, Inc., priority 2011, published 2014):
Values joined by “and” are separate entries in the source; they are usually repeats but may differ in a detail not shown here. Equal values may be shown once. Where a name gives a salt, the structure may show the parent alone.

Tests used:
[1] = target: T1, γ-secretase (cleavage of APP, Aβ42) (Homo sapiens, UniProt P49768); assay: Aβ (1-42) cellular assay (Aβ ELISA, HEK AP-GL-T1 6 cells); assay type: cell-based; details: for IC50: cellular Aβ42 ELISA, 24 h compound treatment; for inhibition at 1 µM: at 1 μM (concentration in brackets)
T1 construct: endogenous in cells; host or cells: HEK AP-GL-T16 luciferase reporter cells (tetracycline-induced APP substrate)
Description: Aβ (1-42) Cellular Assay.
The following assay was used to determine the extent to which the compounds of interest inhibit the cleavage of APP in vivo. AβELISA is a commercial fluorometric kit from Biosource (Invitrogen 89344). Luciferase reporter HEK AP-GL-T1 6 cells were plated at 50,000 cells/well in 96 well plates in DMEM media containing 10% tetracyclin free […], 250 μg/mL zeocin, 200 μg/mL hygromycin, and 5 μg/mL blasticidin. Compounds were added 24 h after plating and APP processing is induced simultaneously by addition of tetracycline. Following a 24 h compound treatment, […] of conditioned cell media is collected, mixed with ELISA diluent buffer containing 2 mM AEBSF and 12 mM o-phenanthroline, and immediately frozen at −80° C. For the ELISA, the samples were brought to room temperature and spun at 5000 rpm for 5 min. Samples ([…]) are incubated in the ELISA plate with […] detection antibody on a shaker at room temperature for 3 h. Wells were then washed 4 times with wash buffer and 100 mL of secondary antibody are added and incubated at room temperature for 30 min. Wells were again washed 4 times with wash buffer and 100 mL of fluorescent substrate solution are added. After 30 minutes of incubation, fluorescent signals are determine on a Gemini reader at ex 460 nm and em 560 nm. The amount of Aβ levels in each sample was determined from a standard curve generated by known concentrations of Aβ peptide run simultaneously with the samples.

[2] = target: T2, γ-secretase (Notch cleavage activity) (Homo sapiens, UniProt P49768); assay: Cleaved Notch1 Sandwich ELISA (SUP-T1 cell line); assay type: cell-based; details: for IC50: SUP-T1 cells, 16 h; for Notch Elisa/Aβ42: ratio Notch Elisa IC50 to Aβ42 IC50
T2 construct: endogenous in cells; host or cells: SUP-T1 cells
Description: Cleaved Notch1 Sandwich ELISA.
This assay was used to determine if the compounds of interest inhibit the Notch cleavage activity of γ-secretase in SUP-T1 cell line, which endogenously expresses a truncated Notch receptor fragment that is a viable gamma-secretase substrate. The base medium for this cell line is ATCC-formulated RPMI-1640 Medium with fetal bovine serum to a final concentration of 10%. Prepare dilution of SUP-T1 cells in complete growth medium to 1.0×10^6 cells/mL, seed 1.5 mL per well of each cell dilution into a 6-well plate. Collect cells treated with serial diluted compounds in DMSO after 16 h, then using equal amount of protein isolated from samples to measure Notch intracellular cleavage by PathScan® Sandwich ELISA Kit (Cell Signaling Tech 7194S).

IC50 [1] | IC50 [2] | Notch Elisa/Aβ42 [2] | Compound | other results
4.05 nM | – | – | COC(=O)c1ccc(CN(C2CCCCC2F)S(=O)(=O)c2ccc(Cl)cc2)cc1 (centres unmarked) [Example 56, Methyl 4-((4-chloro-N-(2-fluorocyclohexyl)phenylsulfonamido)methyl)benzoate] | –
6.4 nM and 20 nM | 2980 nM and 2730 nM | 220 | CC1CCCCC1N(Cc1ccc(C(=O)O)cc1)S(=O)(=O)c1ccc(Cl)nc1 (centres unmarked) [Example 44, 4-((6-Chloro-N-(2-methylcyclohexyl)pyridine-3-sulfonamido)methyl)benzoic acid] | –
7.31 nM | – | – | COC[C@@H](C)NC(=O)c1ccc(CN(C2CCCCC2F)S(=O)(=O)c2ccc(Cl)cc2)cc1 (stereo partly drawn) [Example 88, 4-((4-Chloro-N-(2-fluorocyclohexyl)phenylsulfonamido)methyl)-N-((R)-1-methoxypropan-2-yl)benzamide] | –
29.7 nM | – | – | Methyl 3-(4-((4-chloro-N-(2-methylcyclohexyl)phenylsulfonamido)methyl)benzamido)propanoate [Example 35] | –
47.6 nM | 1880 nM | – | O=C(O)c1ccc(CN(C2CCCC(C(F)(F)F)C2)S(=O)(=O)c2ccc(Cl)cc2)cc1 (single isomer, unassigned) [Example 52, 4-((4-Chloro-N-(3-(trifluoromethyl)cyclohexyl)phenylsulfonamido)methyl)benzoic acid] | Notch Elisa/Aβ42 ([2]; listed as 52/1227C): 40
10.3 nM | 1380 nM | 134 | O=C(NCCO)c1ccc(CN(C2CCCCC2F)S(=O)(=O)c2ccc(Cl)cc2)cc1 (centres unmarked) [Example 66, 4-((4-Chloro-N-(2-fluorocyclohexyl)phenylsulfonamido)methyl)-N-(2-hydroxyethyl)benzamide] | –
6.91 nM | – | – | O=C(NCCN1CCCC1)c1ccc(CN(C2CCCCC2F)S(=O)(=O)c2ccc(Cl)cc2)cc1 (centres unmarked) [Example 87, 4-((4-Chloro-N-(2-fluorocyclohexyl)phenylsulfonamido)methyl)-N-(2-(pyrrolidin-1-yl)ethyl)benzamide] | –
35.4 nM | – | – | C[C@@H](CO)NC(=O)c1ccc(CN(C2CCCCC2F)S(=O)(=O)c2ccc(Cl)cc2)cc1 (stereo partly drawn) [Example 89, 4-((4-Chloro-N-(2-fluorocyclohexyl)phenylsulfonamido)methyl)-N—((S)-1-hydroxypropan-2-yl)benzamide] | –
3620 nM | – | – | O=C(O)CNC(=O)c1ccc(CN(C2CCCCC2F)S(=O)(=O)c2ccc(Cl)cc2)cc1 (centres unmarked) [Example 79, 2-(4-((4-Chloro-N-(2-fluorocyclohexyl)phenylsulfonamido)methyl)benzamido)acetic acid] | –
44.3 nM | 1570 nM | 35 | COC(=O)c1ccc(CN([C@@H]2CCCC[C@H]2F)S(=O)(=O)c2ccc(Cl)cc2)cc1 [Example 83, Methyl 4-((4-chloro-N-((1R,2R)-2-fluorocyclohexyl)phenylsulfonamido)methyl)benzoate] | –
135 nM and 261 nM | 5200 nM | 26 | O=C(O)c1ccc(CN(C2CCCCC2F)S(=O)(=O)c2ccc(Cl)nc2)cc1 (centres unmarked) [Example 62, 4-((6-Chloro-N-(2-fluorocyclohexyl)pyridine-3-sulfonamido)methyl)benzoic acid] | –
26.8 nM | – | – | COC(=O)c1ccc(CN(C2CCCC(C(F)(F)F)C2)S(=O)(=O)c2ccc(Cl)nc2)cc1 (centres unmarked) [Example 70, Methyl 4-((6-chloro-N-(3-(trifluoromethyl)cyclohexyl)pyridine-3-sulfonamido)methyl)benzoate] | –
40.7 nM and 77.4 nM | 2260 nM | 38 | CCN(CCN1CCCC1)C(=O)c1ccc(CN(C2CCCCC2C)S(=O)(=O)c2ccc(Cl)cc2)cc1 (centres unmarked) [Example 39, 4-((4-Chloro-N-(2-methylcyclohexyl)phenylsulfonamido)methyl)-N-ethyl-N-(2-(pyrrolidin-1-yl)ethyl)benzamide] | –
1190 nM | 34800 nM | – | O=C(O)c1ccc(CN(C2CCCC(C(F)(F)F)C2)S(=O)(=O)c2ccc(Cl)cc2)cc1 (single isomer, unassigned) [Example 53, 4-((4-Chloro-N-(3-(trifluoromethyl)cyclohexyl)phenylsulfonamido)methyl)benzoic acid] | Notch Elisa/Aβ42 ([2]; listed as 53/1227D): 29
141 nM | – | – | O=C(O)c1ccc(CN([C@@H]2CCCC[C@H]2F)S(=O)(=O)c2ccc(Cl)cc2)cc1 [Example 84, 4-((4-Chloro-N-((1R,2R)-2-fluorocyclohexyl)phenylsulfonamido)methyl)benzoic acid] | –
148 nM | 2820 nM and 2730 nM | 19 | CC1CCCC(N(Cc2ccc(C(=O)O)cc2)S(=O)(=O)c2ccc(Cl)cc2)C1 (centres unmarked) [Example 43, 4-((4-Chloro-N-(3-methylcyclohexyl)phenylsulfonamido)methyl)benzoic acid] | –
13.3 nM | 1180 nM | 89 | COCC(C)NC(=O)c1ccc(CN(C2CCCCC2F)S(=O)(=O)c2ccc(Cl)cc2)cc1 (centres unmarked) [Example 85, 4-((4-Chloro-N-(2-fluorocyclohexyl)phenylsulfonamido)methyl)-N-(1-methoxypropan-2-yl)benzamide] | –
4.58 nM and 7 nM | 1550 nM | 305 | C[C@H](CO)NC(=O)c1ccc(CN(C2CCCCC2F)S(=O)(=O)c2ccc(Cl)cc2)cc1 (stereo partly drawn) [Example 60, 4-((4-Chloro-N-(2-fluorocyclohexyl)phenylsulfonamido)methyl)-N—((R)-1-hydroxypropan-2-yl)benzamide] | –
10.4 nM | – | – | COC(=O)c1ccc(CN(C2CCCCC2F)S(=O)(=O)c2ccc(Cl)nc2)cc1 (centres unmarked) [Example 61, Methyl 4-((6-chloro-N-(2-fluorocyclohexyl)pyridine-3-sulfonamido)methyl)benzoate] | –
7.3 nM | – | – | COC(=O)c1ccc(CN(C2CCCC(C(F)(F)F)C2)S(=O)(=O)c2ccc(Cl)cc2)cc1 (centres unmarked) [Example 49, Methyl 4-((4-chloro-N-(3-(trifluoromethyl)cyclohexyl)phenylsulfonamido)methyl)benzoate] | –
10.4 nM | 1100 nM | 106 | C[C@H](O)CNC(=O)c1ccc(CN(C2CCCCC2F)S(=O)(=O)c2ccc(Cl)cc2)cc1 (stereo partly drawn) [Example 73, 4-((4-Chloro-N-(2-fluorocyclohexyl)phenylsulfonamido)methyl)-N—((S)-2-hydroxypropyl)benzamide] | –
– | – | – | O=C(O)c1ccc(CN(C2CCCC(C(F)(F)F)C2)S(=O)(=O)c2ccc(Cl)nc2)cc1 (centres unmarked) [Example 63, 4-((6-Chloro-N-(3-(trifluoromethyl)cyclohexyl)pyridine-3-sulfonamido)methyl)benzoic acid] | inhibition at 1 µM ([1]; read-out: Aβ42 % Inh): 87%
103 nM | – | – | COC[C@H](C)NC(=O)c1ccc(CN(C2CCCCC2F)S(=O)(=O)c2ccc(Cl)cc2)cc1 (stereo partly drawn) [Example 86, 4-((4-Chloro-N-(2-fluorocyclohexyl)phenylsulfonamido)methyl)-N—((S)-1-methoxypropan-2-yl)benzamide] | –
– | – | – | O=C(O)c1ccc(CN(C2CCC(F)CC2)S(=O)(=O)c2ccc(Cl)cc2)cc1 (centres unmarked) [Example 82, 4-((4-Chloro-N-(4-fluorocyclohexyl)phenylsulfonamido)methyl)benzoic acid] | inhibition at 30 µM ([1]; at 30 μM (concentration in brackets), read-out: Aβ42 % Inh): 0%
9.44 nM | – | – | COC(=O)c1ccc(CN(C2CCCC(C)C2)S(=O)(=O)c2ccc(Cl)cc2)cc1 (centres unmarked) [Example 42, Methyl 4-((4-chloro-N-(3-methylcyclohexyl)phenylsulfonamido)methyl)benzoate] | –
– | – | – | COC(=O)c1cc(CN(C2CCOCC2)S(=O)(=O)c2ccc(Cl)cc2)ccc1OC [Example 7, Methyl 5-((4-chloro-N-(tetrahydro-2H-pyran-4-yl)phenylsulfonamido)methyl)-2-methoxybenzoate] | inhibition at 1 µM ([1]; read-out: Aβ42 % Inh): 0%
– | – | – | CN(C)CCNC(=O)c1ccc(CN(C2CCCCC2F)S(=O)(=O)c2ccc(Cl)nc2)cc1 (centres unmarked) [Example 80, 4-((6-Chloro-N-(2-fluorocyclohexyl)pyridine-3-sulfonamido)methyl)-N-(2-(dimethylamino)ethyl)benzamide hydrochloride] | inhibition at 1 µM ([1]; read-out: Aβ42 % Inh): 65%
– | – | – | COC(=O)c1ccc(CN(C2CCOCC2)S(=O)(=O)c2ccc(Cl)cc2)cc1 [Example 12, Methyl 4-((4-chloro-N-(tetrahydro-2H-pyran-4-yl)phenylsulfonamido)methyl)-benzoate] | inhibition at 1 µM ([1]; read-out: Aβ42 % Inh): 0%
